Source: patent US10526322B2, “Inhibitors of kidney-type glutaminase, GLS-1” (CORNELL UNIVERSITY, priority 2014, dated 2020)

Columns and labels:
GAC [1] = molecular target: T1, GAC (Mus musculus, UniProt D3Z7P3); assay: Real-time GAC enzyme activity assay coupled to glutamate dehydrogenase (NADH fluorescence); format: biochemical
T1 construct: (residues 72-603) was cloned into a pET23a vector; His-tag with thrombin cleavage site (N, cleaved yes); made in house
T1 sequence (D3Z7P3 72-603 isoform D3Z7P3-2): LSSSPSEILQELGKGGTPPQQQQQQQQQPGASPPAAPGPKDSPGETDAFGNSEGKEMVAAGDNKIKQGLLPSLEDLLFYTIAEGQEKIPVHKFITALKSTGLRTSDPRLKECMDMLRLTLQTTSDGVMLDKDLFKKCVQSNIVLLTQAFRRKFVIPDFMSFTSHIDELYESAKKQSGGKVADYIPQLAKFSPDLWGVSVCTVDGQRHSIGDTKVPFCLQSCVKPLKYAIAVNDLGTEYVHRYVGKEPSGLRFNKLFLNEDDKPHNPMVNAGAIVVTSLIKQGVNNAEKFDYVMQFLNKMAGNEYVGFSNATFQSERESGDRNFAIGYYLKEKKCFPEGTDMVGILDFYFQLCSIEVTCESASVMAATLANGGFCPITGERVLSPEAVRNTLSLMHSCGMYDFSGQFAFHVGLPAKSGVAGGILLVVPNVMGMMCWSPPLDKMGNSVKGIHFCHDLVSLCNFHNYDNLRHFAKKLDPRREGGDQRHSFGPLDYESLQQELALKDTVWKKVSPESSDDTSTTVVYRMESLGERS
Procedure: A plasmid encoding the mouse kidney-type glutaminase isoform 2 (GAC, GenBank Accession No. NP_001106854.1, which is hereby incorporated by reference in its entirety) (residues 72-603) was cloned into a pET23a vector containing an N-terminal histidine (His)-tag and thrombin cleavage site. The expressed protein was purified using Co^2+ affinity beads (Clontech), followed by His-tag cleavage with human thrombin (Haemetologic Technologies) overnight at 4° C., and subsequently purified by anion exchange (GE healthcare) and gel filtration chromatography. Purified GAC was stored in a high salt-containing buffer (20 mM Tris-HCl pH 8.5, 500 mM NaCl, 1 mM NaN3) at −80° C., following snap freezing in liquid N2 for long term use. Labeling recombinant GAC with small molecule probes was performed by exchanging 1.5 mg of enzyme into 50 mM HEPES, pH 7.2, and 100 mM NaCl (labeling buffer), using a PD10 desalting column (GE healthcare). The enzyme was then incubated with 50 μM (5-fold excess of enzyme) of either AlexaFluor 488 succinimidyl ester or QSY9 succinimidyl ester (Molecular Probes) for 1 hour at 4° C. After 1 hour, the labeling reaction was quenched with 150 mM Tris-HCl, pH 8.5, and unreacted probe was separated from labeled-enzyme using a PD10 desalting column, eluting labeled-GAC back into the high salt-containing buffer. The stoichiometry of labeling was determined using the probe manufacturer's reported molar absorptivity values and instructions. Briefly, the concentration of GAC was determined by first correcting absorbance at 280 nm (Abs280) for each probe, using the reported correction values (0.11 for AlexaFluor 488 and 0.23 for QSY-9) and their absorbance values at their absorbance maxima (495 nm and 562 nm, respectively). The corrected Abs280 was used along with the experimentally determined molar absorptivity of GAC (ε280=38,850 M−1 cm−1). AlexaFluor 488 and QSY-9 probes were quantified using their respective absorbance maxima and the manufacturer's reported molar absorptivity values (ε495=71,000 M−1 cm−1 and ε562=85,000 M−1 cm−1).
Real-time fluorescence monitoring of 968 binding and GAC activity through production of NADH was performed on a Varian Cary Eclipse Fluorometer, whereas small molecule inhibition and binding titrations were performed in a 96-well format in a Tecan Saphire absorbance and fluorescence plate reader. Samples for monitoring real-time binding of 968 to 488-GAC were prepared by adding 10 μL of varying concentrations of 968 prepared in DMSO to an equilibrated 1 mL sample of 10 nM 488-GAC, while observing 488 fluorescence (490 nm excitation/520 nm emission). Similarly, this method was replicated for monitoring real-time binding of 968 to mutant forms of GAC, namely 488-labeled GAC (GD391K) and 488-GAC (D391K, K316E, R459E). Real-time activity assays monitoring 968 binding and NADH production were prepared in 1 mL samples, where 10 units of glutamate dehydrogenase (Sigma) and 2 mM NAD+ (Sigma) were prepared in 50 mM Tris-Acetate, pH 8.5, 0.1 mM EDTA and equilibrated at 20° C. WT GAC (10 nM) was added and allowed to equilibrate 2 minutes before monitoring the fluorescence emission of 488-GAC (490 nm excitation, 520 nm emission) and NADH (340 nm excitation, 490 nm emission). Appropriate dilutions of 968 or BPTES prepared in DMSO were introduced after 30 seconds and allowed to equilibrate for 2 minutes before a 180 μL solution of K2HPO4 and glutamine was added to make a final concentration of 50 mM K2HPO4 and 20 mM glutamine, to initiate GAC activation. The activity of GAC was measured in a coupled assay, by monitoring the NADH produced by glutamate dehydrogenase, which converts the product of the glutaminase-catalyzed reaction, glutamate, to α-ketoglutarate and ammonia by reducing NAD+ to NADH. […]

[2] = molecular target: T2, 488-GAC (mouse kidney-type glutaminase isoform 2, GAC) (Mus musculus, UniProt D3Z7P3); assay: Real-time binding assay, quenching of 488-GAC fluorescence; details: 10 nM 488-GAC, 96-well plate format; read-out: KD of binding isotherm (fluorescence quenching)
T2 construct: (residues 72-603) was cloned into a pET23a vector; His-tag with thrombin cleavage site (N, cleaved yes); made in house
T2 sequence (D3Z7P3 72-603 isoform D3Z7P3-2): T1 sequence (D3Z7P3 72-603 isoform D3Z7P3-2)
Procedure: A plasmid encoding the mouse kidney-type glutaminase isoform 2 (GAC, GenBank Accession No. NP_001106854.1, which is hereby incorporated by reference in its entirety) (residues 72-603) was cloned into a pET23a vector containing an N-terminal histidine (His)-tag and thrombin cleavage site. The expressed protein was purified using Co^2+ affinity beads (Clontech), followed by His-tag cleavage with human thrombin (Haemetologic Technologies) overnight at 4° C., and subsequently purified by anion exchange (GE healthcare) and gel filtration chromatography. […] The stoichiometry of labeling was determined using the probe manufacturer's reported molar absorptivity values and instructions. Briefly, the concentration of GAC was determined by first correcting absorbance at 280 nm (Abs280) for each probe, using the reported correction values (0.11 for AlexaFluor 488 and 0.23 for QSY-9) and their absorbance values at their absorbance maxima (495 nm and 562 nm, respectively). The corrected Abs280 was used along with the experimentally determined molar absorptivity of GAC (ε280=38,850 M−1 cm−1). AlexaFluor 488 and QSY-9 probes were quantified using their respective absorbance maxima and the manufacturer's reported molar absorptivity values (ε495=71,000 M−1 cm−1 and ε562=85,000 M−1 cm−1). […]

GAC [3] = molecular target: T1, GAC; assay: Real-time GAC enzyme activity assay coupled to glutamate dehydrogenase (NADH fluorescence); format: biochemical; remark: listed apart in the source

| Kd [2] [µM] | inhibition of enzyme activity (GAC [1]; GAC pre-incubated with 968 before adding phosphate) | potency of inhibition of GAC activity (GAC [3]; GAC concentration decreased from 50 nM to 5 nM) | inhibition of enzyme activity (GAC [3]; GAC preincubated with inorganic phosphate (50 mM Pi) before 968) | Structure (SMILES) | concentration inhibiting the GAC isoform compared with parent compound 968 (GAC [1]; in vitro inhibition, FIG. 9 / FIG. 11) |
| --- | --- | --- | --- | --- | --- |
|  |  |  |  | CC1(C)CC(=O)C2=C(C1)c1c(ccc3cc4ccccc4cc13)NC2c1ccc(N=[N+]=[N-])cc1 (centres unmarked) [SU-22] | lower concentration than the parent compound, 968 |
| 3 | strongly inhibited | greater potency | much less effective | CN(C)c1ccc(C2Nc3ccc4ccccc4c3C3=C2C(=O)CC(C)(C)C3)cc1Br (centres unmarked) [Compound 968] |  |
